Where two headings read alike, the source gives them in different places. Numbered stars: 1 amine (or outer) side, 2 acyl side, 3 side chain; on linkers, the order of the positions; unused ones are H or OH. Square brackets hold non-standard residues; d marks the D form. Side chains are listed from the residue outwards. Peptide text beside a SMILES is read from it. * marks the point of attachment. C20 diacid = O=C(O)CCCCCCCCCCCCCCCCCCC(=O)*; C18 diacid = O=C(O)CCCCCCCCCCCCCCCCC(=O)*; C16 diacid = O=C(O)CCCCCCCCCCCCCCC(=O)*; γGlu = O=C(O)[C@H](CCC(=O)[*:2])N[*:1]; Met(O2) = CS(=O)(=O)CC[C@H](N)C(=O)O; αMeS = C[C@](N)(CO)C(=O)O; AEEA = NCCOCCOCC(=O)O; Aib = CC(C)(N)C(=O)O
Assays:
[1] = target: T1, human GCGR (Homo sapiens, UniProt P47871); assay: cAMP activity assay at the Glucagon receptor (GCGR); format: cell-based; details: for hGCGR/hGLP1R (hTone): ratio of GCGR EC50 to GLP1R EC50
T1 construct: expressed in transfected cells; growth medium holds Blasticidin and Hygromycin
T1 sequence (P47871 26-477): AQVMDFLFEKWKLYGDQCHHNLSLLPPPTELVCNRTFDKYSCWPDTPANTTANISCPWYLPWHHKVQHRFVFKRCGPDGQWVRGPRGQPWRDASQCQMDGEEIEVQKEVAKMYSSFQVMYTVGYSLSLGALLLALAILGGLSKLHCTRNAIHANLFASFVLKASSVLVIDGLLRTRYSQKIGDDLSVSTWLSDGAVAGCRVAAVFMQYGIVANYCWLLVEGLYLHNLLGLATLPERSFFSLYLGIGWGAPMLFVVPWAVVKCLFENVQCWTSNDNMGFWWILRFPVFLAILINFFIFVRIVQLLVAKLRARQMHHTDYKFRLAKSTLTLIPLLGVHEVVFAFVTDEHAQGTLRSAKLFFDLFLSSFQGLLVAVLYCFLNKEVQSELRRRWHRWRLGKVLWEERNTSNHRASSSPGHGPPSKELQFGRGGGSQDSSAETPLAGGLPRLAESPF
Method in brief: (§1)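 Peptides serially diluted from DMSO (10 points) and added to frozen-stock cells bearing human GLP1R (10,000 cells/well) or GCGR (30,000 cells/well), 1 h at RT, dark. EC50 by four-parameter logistic fit of HitHunter cAMPXS luminescence, read following overnight RT incubation.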

[2] = target: T2, human GLP1R (Homo sapiens, UniProt P43220); assay: cAMP activity assay at the GLP-1 receptor (GLP1R); format: cell-based
T2 construct: expressed in transfected cells; growth medium holds Blasticidin and Hygromycin
T2 sequence (P43220 24-463): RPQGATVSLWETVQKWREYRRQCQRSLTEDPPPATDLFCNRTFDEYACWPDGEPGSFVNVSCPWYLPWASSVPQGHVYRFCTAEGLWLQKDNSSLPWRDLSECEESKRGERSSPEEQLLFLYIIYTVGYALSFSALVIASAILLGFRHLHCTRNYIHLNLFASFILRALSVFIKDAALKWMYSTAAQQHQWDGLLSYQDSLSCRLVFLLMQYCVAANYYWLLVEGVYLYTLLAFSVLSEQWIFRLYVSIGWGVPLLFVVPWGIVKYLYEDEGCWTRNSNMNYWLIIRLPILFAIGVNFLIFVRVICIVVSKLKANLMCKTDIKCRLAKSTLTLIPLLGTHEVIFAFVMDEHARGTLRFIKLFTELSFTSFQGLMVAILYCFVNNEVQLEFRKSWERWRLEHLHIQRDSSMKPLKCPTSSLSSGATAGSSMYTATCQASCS
Method in brief: as §1

[3] = cells expressing human GCGR, cAMP production, buffer with or without 20% human serum (not stated which), read-out: GCGR EC50 human
[4] = summary statement: EC50 at each of the glucagon and GLP-1 receptors, read-out: EC50 at the glucagon receptor
[5] = summary statement: EC50 at each of the glucagon and GLP-1 receptors, read-out: EC50 at the GLP-1 receptor

Compound | EC50 [1, 3] [nM] | hGCGR/hGLP1R (hTone) [1] | EC50 [1, 4] [nM] | EC50 ([2]; cells expressing human GLP1R, cAMP production, buffer with or without 20% human serum (not stated which), read-out: GLP1R EC50 human) [nM] | EC50 [2, 5] [nM]
CC(C)C[C@H](NC(=O)[C@H](Cc1c[nH]c2ccccc12)NC(=O)[C@H](CCCCNC(=O)COCCOCCNC(=O)COCCOCCNC(=O)CC[C@H](NC(=O)CCCCCCCCCCCCCCC(=O)O)C(=O)O)NC(=O)[C@@H](NC(=O)[C@H](Cc1ccccc1)NC(=O)[C@H](CC(=O)O)NC(=O)[C@H](CCC(N)=O)NC(=O)[C@H](C)NC(=O)[C@H](C)NC(=O)[C@H](CCCNC(=N)N)NC(=O)C(C)(C)NC(=O)[C@H](CC(=O)O)NC(=O)[C@H](CC(C)C)NC(=O)[C@H](Cc1ccc(O)cc1)NC(=O)[C@H](CCCCN)NC(=O)[C@H](CO)NC(=O)[C@H](Cc1ccc(O)cc1)NC(=O)[C@H](CC(=O)O)NC(=O)[C@H](CO)NC(=O)[C@@H](NC(=O)[C@H](Cc1ccccc1)NC(=O)[C@@H](NC(=O)CNC(=O)[C@H](CCC(N)=O)NC(=O)C(C)(C)NC(=O)[C@@H](N)Cc1c[nH]cn1)[C@@H](C)O)[C@@H](C)O)C(C)C)C(=O)N[C@@H](CCS(C)(=O)=O)C(=O)N[C@@H](CC(=O)O)C(=O)N[C@H](C(N)=O)[C@@H](C)O [TP811] (H-H[Aib]QGTFTSDYSKYLD[Aib]RAAQDFVK([AEEA-AEEA-γGlu-C16 diacid])WL[Met(O2)]DT-NH2; N-terminus assumed) | 0.21 | 0.8 | < 5 | 0.26 | < 5
CC(C)C[C@H](NC(=O)[C@H](Cc1ccc(O)cc1)NC(=O)[C@H](CCCCN)NC(=O)[C@H](CO)NC(=O)[C@H](Cc1ccc(O)cc1)NC(=O)[C@H](CC(=O)O)NC(=O)[C@H](CO)NC(=O)[C@@H](NC(=O)[C@H](Cc1ccccc1)NC(=O)[C@@H](NC(=O)CNC(=O)[C@H](CCC(N)=O)NC(=O)C(C)(C)NC(=O)[C@@H](N)Cc1c[nH]cn1)[C@@H](C)O)[C@@H](C)O)C(=O)N[C@@H](CC(=O)O)C(=O)N[C@@H](C)C(=O)N[C@@H](CCCNC(=N)N)C(=O)N[C@@H](C)C(=O)N[C@@H](C)C(=O)N[C@@H](CCCCNC(=O)COCCOCCNC(=O)COCCOCCNC(=O)CC[C@H](NC(=O)CCCCCCCCCCCCCCCCC(=O)O)C(=O)O)C(=O)N[C@@H](CCC(=O)O)C(=O)N[C@@H](Cc1ccccc1)C(=O)N[C@H](C(=O)N[C@@H](CCC(N)=O)C(=O)N[C@@H](Cc1c[nH]c2ccccc12)C(=O)N[C@@H](CC(C)C)C(=O)N[C@@H](CCS(C)(=O)=O)C(=O)N[C@@H](CC(=O)O)C(=O)N[C@H](C(N)=O)[C@@H](C)O)C(C)C [TP704] (H-H[Aib]QGTFTSDYSKYLDARAAK([AEEA-AEEA-γGlu-C18 diacid])EFVQWL[Met(O2)]DT-NH2; N-terminus assumed) | 0.27 | 0.7 | < 5 |  | < 5
CC(C)C[C@H](NC(=O)[C@H](Cc1c[nH]c2ccccc12)NC(=O)[C@H](CCC(N)=O)NC(=O)[C@@H](NC(=O)[C@H](Cc1ccccc1)NC(=O)[C@H](CC(=O)O)NC(=O)[C@H](CCCCNC(=O)COCCOCCNC(=O)COCCOCCNC(=O)CC[C@H](NC(=O)CCCCCCCCCCCCCCCCCCC(=O)O)C(=O)O)NC(=O)[C@H](C)NC(=O)[C@H](C)NC(=O)[C@H](CCCNC(=N)N)NC(=O)C(C)(C)NC(=O)[C@H](CC(=O)O)NC(=O)[C@H](CC(C)C)NC(=O)[C@H](Cc1ccc(O)cc1)NC(=O)[C@H](CCCCN)NC(=O)[C@H](CO)NC(=O)[C@H](Cc1ccc(O)cc1)NC(=O)[C@H](CC(=O)O)NC(=O)[C@H](CO)NC(=O)[C@@H](NC(=O)[C@H](Cc1ccccc1)NC(=O)[C@@H](NC(=O)CNC(=O)[C@H](CCC(N)=O)NC(=O)[C@](C)(CO)NC(=O)[C@@H](N)Cc1c[nH]cn1)[C@@H](C)O)[C@@H](C)O)C(C)C)C(=O)N[C@@H](CCS(C)(=O)=O)C(=O)N[C@@H](CC(=O)O)C(=O)N[C@H](C(N)=O)[C@@H](C)O [TP592] (H-H[αMeS]QGTFTSDYSKYLD[Aib]RAAK([AEEA-AEEA-γGlu-C20 diacid])DFVQWL[Met(O2)]DT-NH2; N-terminus assumed) | 3.39 | 1.4 | < 5 |  | < 5

Reference: patent publication US11566057B2, “Long-acting co-agonists of the glucagon and GLP-1 receptors” (Merck Sharp & Dohme Corp., priority 2017, dated 2023)
